Results on 10 molecules are retold here after US20140296354A1, “SYNTHESIS OF PEPTOID-BASED SMALL MOLECULAR GELATORS FROM MULTIPLE COMPONENT REACTIONS” (OLD DOMINION UNIVERSITY RESEARCH FOUNDATION, priority 2013, published 2014).

Data set [1] is described as follows: Gelation test in solvents at room temperature. Format: physicochemical. Set-up: key to Gelation test result: I, insoluble; P, precipitating; S, soluble at ~20 mg/mL; G, gel at room temperature; number is minimum gelation concentration. Conditions: for Gelation test result / minimum gelation concentration: room temperature; for MGC in DMSO:H2O (1:2): Table 2. On the procedure: (§1) Gelation tests were performed by adding incremental amounts of compounds to a solvent or solvent system at room temperature and observing the results (i.e., gel formation, solubility of compounds, insolubility of compounds, or formation of a precipitate). […] The term “precipation” means that the compound dissolves upon heating and sonicating, however, it crashes out of solution when the heat is removed.
(§2) After the compounds were synthesized, they were screened for gelation properties. […] For the compounds with new chiral centers, they formed gels in aqueous environment preferentially.

Another data set in a line: Gel melting temperatures. Format: physicochemical. The conditions noted are these: gel in DMSO:H2O (1:2) at its minimum gelation concentration. Here is the method:
Melting points were measured for compounds that were gelators in the DMSO:H2O (1:2) solvent system. In general, a compound was dissolved in heated solvent in a small vial at its minimum gelation concentration and transferred into a tube (e.g., an NMR tube) while the mixture was still warm. The tube was sonicated and cooled until a stable gel formed. The tube was immersed in an oil bath and the temperature of the solid-to-liquid phase transition was monitored using a thermometer as the oil bath temperature was changed. Gel melting temperatures are presented in […]

Data set [2] in a line: Gelation test in solvents at room temperature. The data set is classed as physicochemical. Set-up: key: I, insoluble; P, precipitating; S, soluble at ~20 mg/mL; G, gel at room temperature; number is minimum gelation concentration. Conditions: Table 3. Here is the method: as §1, §2
Data set [3] in a line: Gelation test in solvents at room temperature. Format: physicochemical. Set-up: key: S, soluble (starting test at 20 mg/mL); I, insoluble; P, precipitate; G, stable gel, the numbers after G are preliminary MGCs in mg/mL; UG, slightly unstable gels or partial gels, concentrations are 20 mg/mL unless otherwise noted. Conditions: Table 3. On the procedure:
as §1, §2

For orientation: melting point means the temperature, or range, at which the solid turns liquid. On to `COC1OC2COC(c3ccccc3)OC2C(O)C1N(CC(=O)NC1CCCCC1)C(=O)c1ccc(Br)cc1` (stereo not drawn) [Compound 25, 4-Bromo-N-(2-(cyclohexylamino)-2-oxoethyl)-N-(8-hydroxy-6-methoxy-2-phenyl-hexahydropyrano[3,2-d][1,3]dioxin-7-yl)benzamide], for which the melting point was in the range of 291 to 293 °C. Also, in data set [1] (DMSO:H2O (1:1)), the Gelation test result is on record as “G” and the minimum gelation concentration is listed as 20.0 mg/mL. In addition, in data set [1] (DMSO:H2O (1:2)), the Gelation test result is “P”. In data set [1] (EtOH), the Gelation test result is given as “G” and the minimum gelation concentration turned out to be 20.0 mg/mL. Also, in data set [1] (EtOH:H2O (1:1)), the Gelation test result is given as “G” and the minimum gelation concentration was determined as 20.0 mg/mL. In addition, in data set [1] (EtOH:H2O (1:2)), the Gelation test result is on record as “G” and the minimum gelation concentration stood at 20.0 mg/mL. The Gelation test result in data set [1] (H2O) is on record as “I”. For the same molecule, in data set [1] (Hexane), the Gelation test result is “P”.
For the molecule `CC(=O)N(CC(=O)NC1CCCCC1)Cc1ccccc1` [Compound 14, N-benzyl-N-(2-(cyclohexylamino)-2-oxoethyl)acetamide], the melting point is 122 to 124 °C. Moreover, the Gelation test result in data set [1] (DMSO:H2O (1:1)) is on record as “S (S, soluble at ~20 mg/mL)”. Besides, the Gelation test result in data set [1] (DMSO:H2O (1:2)) was “P”. In addition, in data set [1] (EtOH), the Gelation test result was “S (S, soluble at ~20 mg/mL)”. In data set [1] (EtOH:H2O (1:1)), the Gelation test result is given as “S (S, soluble at ~20 mg/mL)”. Moreover, in data set [1] (EtOH:H2O (1:2)), the Gelation test result was “P”. Moreover, the Gelation test result in data set [1] (H2O) is “P”. In addition, the Gelation test result in data set [1] (Hexane) is given as “I^(a)”.
As to `CCOC(=O)CNC(=O)CN(Cc1ccc(OC)cc1)C(=O)c1ccccc1` [Compound 23, Ethyl 2-(2-(N-(4-methoxybenzyl)benzamido)acetamido)acetate], the melting point lay in the range of 94 to 96 °C. Moreover, in the data set “Gel melting temperatures”, the “T1, temperature at which gel begins to melt” value (“T1, temperature” below) came to 50 °C; the “T2, temperature at which gel is approximately half melted” value (from here on “T2, temperature”) came out at 52 °C; the “T3, temperature at which gel is fully melted” value (“T3, temperature” for short) turned out to be 58 °C. Besides, the Gelation test result in data set [1] (DMSO:H2O (1:1)) is listed as “P”. Besides, in data set [1] (DMSO:H2O (1:2)), the Gelation test result was “G”, the minimum gelation concentration amounted to 20.0 mg/mL and the “MGC in DMSO:H2O (1:2)” value turned out to be 20.0 mg/mL. Besides, the Gelation test result in data set [1] (EtOH) is recorded as “S (S, soluble at ~20 mg/mL)”. Further, the Gelation test result in data set [1] (EtOH:H2O (1:1)) is “P”. Moreover, the Gelation test result in data set [1] (EtOH:H2O (1:2)) was “P”. Moreover, the Gelation test result in data set [1] (H2O) is “S (S, soluble at ~20 mg/mL)”. Moreover, the Gelation test result in data set [1] (Hexane) is recorded as “I”.
`C#CCCC(=O)N(CC(=O)NC1CCCCC1)Cc1ccccc1` [Compound 15, N-benzyl-N-(2-(cyclohexylamino)-2-oxoethyl)pent-4-ynamide]: the melting point fell in the range of 138 to 140 °C. Further, in “Gel melting temperatures”, the “T1, temperature” value turned out to be 95 °C; the “T2, temperature” value is 100 °C; the “T3, temperature” value was 110 °C. In addition, in data set [1] (DMSO:H2O (1:1)), the Gelation test result is on record as “G” and the minimum gelation concentration was found to be 20.0 mg/mL. For the same molecule, in data set [1] (DMSO:H2O (1:2)), the Gelation test result is on record as “G”, the minimum gelation concentration is listed as 20.0 mg/mL and the “MGC in DMSO:H2O (1:2)” value was 20.0 mg/mL. Also, the Gelation test result in data set [1] (EtOH) was “P”. Moreover, the Gelation test result in data set [1] (EtOH:H2O (1:1)) is “P”. Also, in data set [1] (EtOH:H2O (1:2)), the Gelation test result is recorded as “G” and the minimum gelation concentration is on record as 20.0 mg/mL. In addition, in data set [1] (H2O), the Gelation test result is listed as “S (S, soluble at ~20 mg/mL)”. Also, the Gelation test result in data set [1] (Hexane) is on record as “P^(b)”.
For `C[C@H](c1ccccc1)N(CC(=O)NC1CCCCC1)C(=O)c1ccc(Br)cc1` [Compound 19, (R)-4-bromo-N-(2-(cyclohexylamino)-2-oxoethyl)-N-(1-phenylethyl)benzamide], the melting point is 140 to 142 °C. For the same molecule, in data set [1] (DMSO:H2O (1:1)), the Gelation test result is given as “G” and the minimum gelation concentration is recorded as 20.0 mg/mL. Further, the Gelation test result in data set [1] (DMSO:H2O (1:2)) is on record as “P”. In addition, the Gelation test result in data set [1] (EtOH) is reported as “S (S, soluble at ~20 mg/mL)”. Besides, the Gelation test result in data set [1] (EtOH:H2O (1:1)) is recorded as “P”. Besides, the Gelation test result in data set [1] (EtOH:H2O (1:2)) is recorded as “P”. Further, the Gelation test result in data set [1] (H2O) is “P”. The Gelation test result in data set [1] (Hexane) was “S^(c) (S, soluble at ~20 mg/mL)”.
Molecule `O=C(CN(Cc1ccccc1)C(=O)c1ccccc1)NC1CCCCC1` [Compound 16, N-benzyl-N-(2-(cyclohexylamino)-2-oxoethyl)benzamide] returned a melting point of 104 to 106 °C. Also, the Gelation test result in data set [1] (DMSO:H2O (1:1)) was “P”. Also, in data set [1] (DMSO:H2O (1:2)), the Gelation test result is reported as “P”. Further, the Gelation test result in data set [1] (EtOH) is reported as “P”. For the same molecule, the Gelation test result in data set [1] (EtOH:H2O (1:1)) was “P”. Also, the Gelation test result in data set [1] (EtOH:H2O (1:2)) is “P”. In addition, the Gelation test result in data set [1] (H2O) was “I”. Moreover, the Gelation test result in data set [1] (Hexane) is listed as “I”.
Regarding `COC1OC2COC(c3ccccc3)OC2C(O)C1N(CC(=O)NC1CCCCC1)C(=O)c1ccccc1` (stereo not drawn) [Compound 24, N-(2-(cyclohexylamino)-2-oxoethyl)-N-(8-hydroxy-6-methoxy-2-phenyl-hexahydropyrano[3,2-d][1,3]dioxin-7-yl)benzamide], the melting point was in the range of 261 to 263 °C. Further, in data set [1] (DMSO:H2O (1:1)), the Gelation test result is recorded as “P”. Further, in data set [1] (DMSO:H2O (1:2)), the Gelation test result is reported as “P”. In data set [1] (EtOH), the Gelation test result was “G” and the minimum gelation concentration amounted to 20.0 mg/mL. The Gelation test result in data set [1] (EtOH:H2O (1:1)) is recorded as “P”. Moreover, in data set [1] (EtOH:H2O (1:2)), the Gelation test result is “G” and the minimum gelation concentration worked out at 20.0 mg/mL. For the same molecule, the Gelation test result in data set [1] (H2O) is “I”. Moreover, the Gelation test result in data set [1] (Hexane) is “P”.
For the molecule `O=C(CN(Cc1ccccc1)C(=O)c1ccc(Br)cc1)NC1CCCCC1` [Compound 17, N-benzyl-4-bromo-N-(2-(cyclohexylamino)-2-oxoethyl)benzamide], the melting point was in the range of 168 to 170 °C. Further, in the data set “Gel melting temperatures”, the “T1, temperature” value was 78 °C; the “T2, temperature” value turned out to be 80 °C; the “T3, temperature” value came out at 90 °C. For the same molecule, in data set [1] (DMSO:H2O (1:1)), the Gelation test result was “G” and the minimum gelation concentration stood at 10.0 mg/mL. In data set [1] (DMSO:H2O (1:2)), the Gelation test result is on record as “G”, the minimum gelation concentration is given as 5.0 mg/mL and the “MGC in DMSO:H2O (1:2)” value worked out at 5.0 mg/mL. The Gelation test result in data set [1] (EtOH) is on record as “S (S, soluble at ~20 mg/mL)”. Also, in data set [1] (EtOH:H2O (1:1)), the Gelation test result is “G” and the minimum gelation concentration was found to be 20.0 mg/mL. For the same molecule, the Gelation test result in data set [1] (EtOH:H2O (1:2)) is “P”. Moreover, the Gelation test result in data set [1] (H2O) is recorded as “P”. Also, the Gelation test result in data set [1] (Hexane) was “I”.
As for `CCOC(=O)CNC(=O)CN(Cc1ccccc1)C(=O)c1ccc(C(=O)N(CC(=O)NCC(=O)OCC)Cc2ccccc2)cc1` [Compound 30], the Gelation result in data set [1] (EtOH, Table 3) is reported as “S (S, soluble (starting test at 20 mg/mL))”; in data set [2] (Hexane), “I”; in data set [2] (Water), “I”; in data set [3] (DMSO:H2O 1:1), “P”; in data set [3] (DMSO:H2O 1:2) it was “P”; in data set [3] (EtOH:H2O (1:2)), “P”.
`COc1ccc(CN(CC(=O)NC2CCCCC2)C(=O)c2ccc(Br)cc2)cc1` [Compound 20, N-(4-methoxybenzyl)-4-bromo-N-(2-(cyclohexylamino)-2-oxoethyl)benzamide] had a melting point of 174 to 176 °C. In the data set “Gel melting temperatures”, the “T1, temperature” value came to 91 °C; the “T2, temperature” value turned out to be 110 °C; the “T3, temperature” value came out at 120 °C. Moreover, in data set [1] (DMSO:H2O (1:1)), the Gelation test result was “G” and the minimum gelation concentration is recorded as 5.0 mg/mL. In data set [1] (DMSO:H2O (1:2)), the Gelation test result is “G”, the minimum gelation concentration is 6.6 mg/mL and the “MGC in DMSO:H2O (1:2)” value is 6.6 mg/mL. Also, the Gelation test result in data set [1] (EtOH) is “P”. Besides, in data set [1] (EtOH:H2O (1:1)), the Gelation test result is on record as “G” and the minimum gelation concentration amounted to 10.0 mg/mL. In addition, the Gelation test result in data set [1] (EtOH:H2O (1:2)) was “P”. The Gelation test result in data set [1] (H2O) is “P”. Also, the Gelation test result in data set [1] (Hexane) is “P”.
